Reference: US4335041A, “High sensitivity assays for angiotensin converting enzyme” (Ventrex Laboratories, Inc., priority 1980, dated 1982)
Peptide text beside a SMILES is read from it. * marks the point of attachment. Bz = O=C(c1ccccc1)*

Columns and labels:
[1] = target: T1, Guinea pig serum ACE (Cavia porcellus, UniProt H0UWL7); assay: Kinetics of sulfate-stimulated HipHisLeu hydrolysis (Example 4); assay type: biochemical
T1 sequence (H0UWL7 33-1234): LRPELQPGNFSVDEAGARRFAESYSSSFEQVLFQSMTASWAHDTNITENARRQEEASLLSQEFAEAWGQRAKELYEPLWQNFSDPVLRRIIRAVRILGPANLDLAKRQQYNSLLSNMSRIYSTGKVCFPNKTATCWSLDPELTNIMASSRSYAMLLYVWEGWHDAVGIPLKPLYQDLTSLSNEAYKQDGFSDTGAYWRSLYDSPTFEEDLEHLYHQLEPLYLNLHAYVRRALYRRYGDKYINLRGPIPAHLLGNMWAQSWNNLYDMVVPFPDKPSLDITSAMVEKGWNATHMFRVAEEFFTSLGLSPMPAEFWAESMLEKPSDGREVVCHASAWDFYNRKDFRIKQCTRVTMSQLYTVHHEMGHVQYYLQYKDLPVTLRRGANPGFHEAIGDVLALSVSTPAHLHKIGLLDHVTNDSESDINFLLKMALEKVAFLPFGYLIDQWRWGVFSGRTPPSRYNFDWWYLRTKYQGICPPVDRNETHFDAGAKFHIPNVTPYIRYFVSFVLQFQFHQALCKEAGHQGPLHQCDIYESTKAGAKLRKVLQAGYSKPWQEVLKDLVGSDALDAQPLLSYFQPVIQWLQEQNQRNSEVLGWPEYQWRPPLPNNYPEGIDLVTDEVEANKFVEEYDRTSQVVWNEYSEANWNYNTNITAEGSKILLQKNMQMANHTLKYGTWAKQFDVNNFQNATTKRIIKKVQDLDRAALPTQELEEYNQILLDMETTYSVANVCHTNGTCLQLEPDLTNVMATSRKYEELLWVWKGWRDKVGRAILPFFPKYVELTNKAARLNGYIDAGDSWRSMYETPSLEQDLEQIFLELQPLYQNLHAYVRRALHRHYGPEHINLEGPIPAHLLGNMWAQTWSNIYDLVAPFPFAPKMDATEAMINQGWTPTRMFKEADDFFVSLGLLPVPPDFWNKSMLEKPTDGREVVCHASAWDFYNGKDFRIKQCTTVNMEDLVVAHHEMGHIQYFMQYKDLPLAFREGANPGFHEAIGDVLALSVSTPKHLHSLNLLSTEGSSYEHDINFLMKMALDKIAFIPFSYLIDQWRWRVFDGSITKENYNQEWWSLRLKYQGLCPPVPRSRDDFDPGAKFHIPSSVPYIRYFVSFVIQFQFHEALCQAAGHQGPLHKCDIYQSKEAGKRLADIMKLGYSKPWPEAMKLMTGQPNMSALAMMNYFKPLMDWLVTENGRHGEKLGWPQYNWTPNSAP
Procedure: In each assay, 50 μl of Guinea pig serum diluted 1-20 (v/v) in the reaction buffer was mixed with 50 μl of buffer containing sufficient ^3 H-HipHisLeu to provide approximately 100,000 cpm total, together with sufficient unlabeled HipHisLeu to produce the desired substrate concentrations, as indicated in Table 2. […] The reaction mixture was then extracted with 1 ml ethyl acetate. 500 μl of the ethyl acetate fraction was sampled and counted in a scintillation counter.

[2] = target: T2, Guinea pig urinary ACE (Cavia porcellus, UniProt H0UWL7); assay: Sulfate and chloride effects on substrate hydrolysis (Example 3); assay type: biochemical
T2 sequence (H0UWL7 33-1302): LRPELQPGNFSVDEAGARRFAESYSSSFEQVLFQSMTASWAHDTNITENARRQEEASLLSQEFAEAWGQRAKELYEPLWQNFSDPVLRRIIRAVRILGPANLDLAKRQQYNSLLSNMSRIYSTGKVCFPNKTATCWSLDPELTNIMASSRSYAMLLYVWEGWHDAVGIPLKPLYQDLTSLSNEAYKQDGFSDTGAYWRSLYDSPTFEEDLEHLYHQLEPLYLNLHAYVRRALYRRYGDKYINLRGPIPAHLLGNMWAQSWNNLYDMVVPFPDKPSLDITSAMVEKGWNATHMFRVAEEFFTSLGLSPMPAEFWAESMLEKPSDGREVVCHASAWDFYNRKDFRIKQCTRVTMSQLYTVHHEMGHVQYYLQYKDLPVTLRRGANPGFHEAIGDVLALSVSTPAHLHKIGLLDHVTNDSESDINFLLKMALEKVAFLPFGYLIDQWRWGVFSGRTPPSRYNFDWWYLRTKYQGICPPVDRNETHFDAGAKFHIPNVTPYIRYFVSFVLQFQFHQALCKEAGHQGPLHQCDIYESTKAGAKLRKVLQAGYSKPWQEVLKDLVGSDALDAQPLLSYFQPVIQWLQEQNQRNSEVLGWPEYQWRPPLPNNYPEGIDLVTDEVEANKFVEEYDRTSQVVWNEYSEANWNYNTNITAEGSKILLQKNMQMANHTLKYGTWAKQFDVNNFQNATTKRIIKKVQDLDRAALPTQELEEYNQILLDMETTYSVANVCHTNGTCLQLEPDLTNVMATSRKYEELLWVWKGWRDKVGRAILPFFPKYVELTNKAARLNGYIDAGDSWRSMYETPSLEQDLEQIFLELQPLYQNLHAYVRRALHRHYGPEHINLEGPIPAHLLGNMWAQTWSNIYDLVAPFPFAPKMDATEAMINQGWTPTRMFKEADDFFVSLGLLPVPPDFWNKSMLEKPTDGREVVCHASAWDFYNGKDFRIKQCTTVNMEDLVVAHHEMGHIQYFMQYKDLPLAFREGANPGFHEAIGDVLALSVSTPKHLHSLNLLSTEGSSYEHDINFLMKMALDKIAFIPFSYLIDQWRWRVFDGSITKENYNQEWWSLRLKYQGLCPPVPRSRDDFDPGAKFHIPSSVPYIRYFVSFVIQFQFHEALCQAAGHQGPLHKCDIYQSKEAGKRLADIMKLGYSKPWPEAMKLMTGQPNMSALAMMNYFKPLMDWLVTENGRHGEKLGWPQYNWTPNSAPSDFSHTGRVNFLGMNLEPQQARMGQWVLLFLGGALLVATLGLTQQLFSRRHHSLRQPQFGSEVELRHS
Procedure: ^3 H-HipHisLeu prepared as described in Example 2 and ^3 H-benzoylPheAlaPro, prepared as described in Example 5, were used as substrates for Guinea pig urinary ACE, prepared as described in Example 1. […] All incubations were carried out at 37° C. for 10 minutes. Enzyme was diluted in the reaction buffer to provide not more than 15% hydrolysis during the 10 minute incubation. Enzyme, 50 μl, was mixed with 50 μl ^3 H-HipHisLeu, 0.2 mM, having 150,000 total counts pr minute (cpm), or with ^3 H-benzoylPheAlaPro having 10,000 cpm to 200,000 cpm. Reactions were carried out in the presence of 0.1 M NaCl or in the absence of NaCl, with varying amounts of Na2 SO4 added.

[3] = tested on: ACE from rabbit lung; conditions: sodium chloride removed; cited from earlier work
[4] = tested on: enzyme isolated from hog lung; conditions: cited from earlier work
[5] = tested on: ACE; assay: Response of 3H-benzoylPheAlaPro hydrolysis to added NaCl; assay type: biochemical; conditions: 0.05 M added sodium chloride, 0.05 M Hepes pH 8.0
Procedure: An even more sensitive assay for ACE activity has been developed using the novel compound ^3 H-benzoylPheAlaPro as substrate. This new substrate can be used to assay ACE in human urine in incubations as short as 15 minutes. The response of this substrate to ions is strikingly different from the response of HipHisLeu. […] This difficulty has been solved by the proper choice of extracting solvent. While a variety of organic solvents may be suitable for the extraction step, it is preferred to employ toluene. Approximately 88% of ^3 H-benzoylPhe enters the toluene phase while only 6% of the unhydrolyzed substrate enters the toluene phase, when toluene and the acidified reaction mixture are in approximately equal volumes at room temperature.

[6] = Solvent extraction from acidified reaction mixture; assay type: physicochemical
Excerpt: While a variety of organic solvents may be suitable for the extraction step, it is preferred to employ toluene.

[7] = sulfate 0.6 M, 0.1 M chloride, pH 8

**Q.** For `CC(C)C[C@H](NC(=O)[C@H](Cc1c[nH]cn1)NC(=O)CNC(=O)c1ccccc1)C(=O)O` [HipHisLeu] (Bz-Gly-His-Leu-OH), which “reduction of Km by sulfate” value ([1]; 0.75 M Na2SO4 in reaction mixture containing 0.1 M NaCl) is on record?
**A.** about 15 fold

**Q.** What about the “decrease in Km by sulfate” value ([1]; sulfate ion 0.75-1.1 M) of the same compound?
**A.** 14 fold

**Q.** And the “Reaction Velocity - Percent of Substrate Hydrolyzed in 10 minutes” value (“Reaction Velocity - Percent” below) ([2]; 0.05M Hepes pH 8.0, 0.0M NaCl, Na2SO4 0)?
**A.** 0%

**Q.** And the “Reaction Velocity - Percent” value ([2]; 0.05M Hepes pH 8.0, 0.0M NaCl, Na2SO4 0.1)?
**A.** 0%

**Q.** What about the “Reaction Velocity - Percent” value ([2]; 0.05M Hepes pH 8.0, 0.0M NaCl, Na2SO4 0.2) of the same compound?
**A.** 0%

**Q.** What about the “Reaction Velocity - Percent” value ([2]; 0.05M Hepes pH 8.0, 0.0M NaCl, Na2SO4 0.3) of the same compound?
**A.** 0%

**Q.** And the “Reaction Velocity - Percent” value ([2]; 0.05M Hepes pH 8.0, 0.0M NaCl, Na2SO4 0.4)?
**A.** 0.1%

**Q.** What about the “Reaction Velocity - Percent” value ([2]; 0.05M Hepes pH 8.0, 0.0M NaCl, Na2SO4 0.5) of the same compound?
**A.** 0.1%

**Q.** And the “Reaction Velocity - Percent” value ([2]; 0.05M Hepes pH 8.0, 0.0M NaCl, Na2SO4 0.6)?
**A.** 0.25%

**Q.** What about the “Reaction Velocity - Percent” value ([2]; 0.05M Hepes pH 8.0, 0.0M NaCl, Na2SO4 0.7) of the same compound?
**A.** 0.25%

**Q.** And the “Reaction Velocity - Percent” value ([2]; 0.05M Hepes pH 8.0, 0.0M NaCl, Na2SO4 0.75)?
**A.** 0.25%

**Q.** And the “Reaction Velocity - Percent” value ([2]; 0.05M Hepes pH 8.0, 0.0M NaCl, Na2SO4 0.8)?
**A.** 0.25%

**Q.** And the “Reaction Velocity - Percent” value ([2]; 0.05M Hepes pH 8.0, 0.0M NaCl, Na2SO4 0.9)?
**A.** 0.7%

**Q.** What about the “Reaction Velocity - Percent” value ([2]; 0.05M Hepes pH 8.0, 0.0M NaCl, Na2SO4 1.2) of the same compound?
**A.** 3.9%

**Q.** And the “Reaction Velocity - Percent” value ([2]; 0.05M Hepes pH 8.0, 0.1M NaCl, Na2SO4 0)?
**A.** 0.3%

**Q.** And the “Reaction Velocity - Percent” value ([2]; 0.05M Hepes pH 8.0, 0.1M NaCl, Na2SO4 0.4)?
**A.** 4.1%

**Q.** What about the “Reaction Velocity - Percent” value ([2]; 0.05M Hepes pH 8.0, 0.1M NaCl, Na2SO4 0.6) of the same compound?
**A.** 8.3%

**Q.** What about the “inhibition on removal of sodium chloride from the reaction medium” value [3] of the same compound?
**A.** 92%

**Q.** For `O=C(O)CNC(=O)CNC(=O)CNC(=O)c1ccccc1` [HipGlyGly] (Bz-Gly-Gly-Gly-OH), which “hydrolysis in the absence of NaCl” value ([4]; no NaCl, Na2SO4 0.001 M to 0.6 M) is on record?
**A.** no hydrolysis

**Q.** And the “decrease of Km by sulfate” value [4, 7]?
**A.** about 15%

**Q.** What about the “increase of Vmax by sulfate” value [4, 7] of the same compound?
**A.** about 5 fold

**Q.** Which results are given for `C[C@H](NC(=O)[C@H](Cc1ccccc1)NC(=O)c1ccccc1)C(=O)N1CCC[C@H]1C(=O)O` [benzoylPheAlaPro, benzoyl-Phe-Ala-Pro] (Bz-Phe-Ala-Pro-OH)?
**A.** Reaction Velocity - Percent of Substrate Hydrolyzed in 10 minutes ([2]; 0.05 Hepes pH 8.0, 0.1 M NaCl, Na2SO4 0): 4.4%; Reaction Velocity - Percent of Substrate Hydrolyzed in 10 minutes ([2]; 0.05 Hepes pH 8.0, 0.1 M NaCl, Na2SO4 0.1): 5.0%; Reaction Velocity - Percent of Substrate Hydrolyzed in 10 minutes ([2]; 0.05 Hepes pH 8.0, 0.1 M NaCl, Na2SO4 0.5): 5.6%; increase of apparent reaction velocity by added NaCl [5]: approximately 3 fold; extraction into ethyl acetate ([6]; reaction terminated with dilute hydrochloric acid): extracted almost quantitatively; fraction entering the toluene phase ([6]; toluene and acidified reaction mixture in approximately equal volumes, room temperature): 6%
